According to publication PMC10507085, “Pharmacological inhibition of TBK1/IKKε blunts immunopathology in a murine model of SARS-CoV-2 infection” (Nature Communications, 2023):

Assays:
Experiment in all cases: biochemical
Set-up in all cases: KINOMEscan competition binding, DNA-tagged kinase against immobilised ligand, qPCR read-out
Settings in all cases: read-out: Percent Control
MAP3K2 = MAP3K2 (Homo sapiens, UniProt Q9Y2U5)
INSRR = INSRR (Homo sapiens, UniProt P14616)
[1] = target: T1, RPS6KA4(Kin.Dom.1-N-terminal) (Homo sapiens, UniProt O75676)
T1 construct: Kin.Dom.1 N-terminal
T1 sequence (O75676 whole entry): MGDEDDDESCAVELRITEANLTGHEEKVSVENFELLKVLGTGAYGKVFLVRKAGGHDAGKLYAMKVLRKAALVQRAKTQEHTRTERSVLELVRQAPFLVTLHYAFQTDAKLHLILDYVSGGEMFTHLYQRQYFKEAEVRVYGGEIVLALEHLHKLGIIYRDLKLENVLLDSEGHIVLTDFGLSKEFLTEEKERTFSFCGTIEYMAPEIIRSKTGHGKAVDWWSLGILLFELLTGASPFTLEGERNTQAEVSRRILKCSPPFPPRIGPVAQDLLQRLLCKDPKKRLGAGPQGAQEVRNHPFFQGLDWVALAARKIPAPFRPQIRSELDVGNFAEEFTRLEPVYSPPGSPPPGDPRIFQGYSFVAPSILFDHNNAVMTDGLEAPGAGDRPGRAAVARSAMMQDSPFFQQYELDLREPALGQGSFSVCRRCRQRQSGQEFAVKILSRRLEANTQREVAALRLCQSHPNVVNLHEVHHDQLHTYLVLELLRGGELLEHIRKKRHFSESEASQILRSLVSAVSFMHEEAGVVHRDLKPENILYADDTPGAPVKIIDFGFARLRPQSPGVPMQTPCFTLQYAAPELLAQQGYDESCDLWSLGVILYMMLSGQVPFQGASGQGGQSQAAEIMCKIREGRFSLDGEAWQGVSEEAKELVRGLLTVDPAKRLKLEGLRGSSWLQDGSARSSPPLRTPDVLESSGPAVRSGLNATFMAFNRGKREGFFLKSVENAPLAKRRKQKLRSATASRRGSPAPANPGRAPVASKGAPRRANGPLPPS

CDK16 = CDK16 (Homo sapiens, UniProt Q00536)
Sequence of CDK16 (Q00536 whole entry): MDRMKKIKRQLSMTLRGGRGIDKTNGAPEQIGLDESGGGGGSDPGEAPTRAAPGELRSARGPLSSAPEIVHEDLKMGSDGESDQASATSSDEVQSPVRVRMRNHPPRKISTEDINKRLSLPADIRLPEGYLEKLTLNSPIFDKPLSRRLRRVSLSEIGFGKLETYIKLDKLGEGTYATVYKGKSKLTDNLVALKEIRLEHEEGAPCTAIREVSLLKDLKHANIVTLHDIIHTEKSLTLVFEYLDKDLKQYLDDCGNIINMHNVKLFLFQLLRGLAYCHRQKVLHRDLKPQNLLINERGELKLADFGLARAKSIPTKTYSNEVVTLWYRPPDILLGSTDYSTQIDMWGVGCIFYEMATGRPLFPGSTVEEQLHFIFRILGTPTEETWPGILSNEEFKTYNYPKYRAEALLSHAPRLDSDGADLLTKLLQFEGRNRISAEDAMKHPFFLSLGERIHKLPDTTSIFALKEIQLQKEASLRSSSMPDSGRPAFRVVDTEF

GSK3A = GSK3A (Homo sapiens, UniProt P49840)
[2] = target: T2, JAK3(JH1domain-catalytic) (Homo sapiens, UniProt P52333)
T2 construct: JH1 domain catalytic

PAK6 = PAK6 (Homo sapiens, UniProt Q9NQU5)
NLK = NLK (Homo sapiens, UniProt Q9UBE8)
MAP3K4 = MAP3K4 (Homo sapiens, UniProt Q9Y6R4)
Sequence of MAP3K4 (Q9Y6R4 whole entry): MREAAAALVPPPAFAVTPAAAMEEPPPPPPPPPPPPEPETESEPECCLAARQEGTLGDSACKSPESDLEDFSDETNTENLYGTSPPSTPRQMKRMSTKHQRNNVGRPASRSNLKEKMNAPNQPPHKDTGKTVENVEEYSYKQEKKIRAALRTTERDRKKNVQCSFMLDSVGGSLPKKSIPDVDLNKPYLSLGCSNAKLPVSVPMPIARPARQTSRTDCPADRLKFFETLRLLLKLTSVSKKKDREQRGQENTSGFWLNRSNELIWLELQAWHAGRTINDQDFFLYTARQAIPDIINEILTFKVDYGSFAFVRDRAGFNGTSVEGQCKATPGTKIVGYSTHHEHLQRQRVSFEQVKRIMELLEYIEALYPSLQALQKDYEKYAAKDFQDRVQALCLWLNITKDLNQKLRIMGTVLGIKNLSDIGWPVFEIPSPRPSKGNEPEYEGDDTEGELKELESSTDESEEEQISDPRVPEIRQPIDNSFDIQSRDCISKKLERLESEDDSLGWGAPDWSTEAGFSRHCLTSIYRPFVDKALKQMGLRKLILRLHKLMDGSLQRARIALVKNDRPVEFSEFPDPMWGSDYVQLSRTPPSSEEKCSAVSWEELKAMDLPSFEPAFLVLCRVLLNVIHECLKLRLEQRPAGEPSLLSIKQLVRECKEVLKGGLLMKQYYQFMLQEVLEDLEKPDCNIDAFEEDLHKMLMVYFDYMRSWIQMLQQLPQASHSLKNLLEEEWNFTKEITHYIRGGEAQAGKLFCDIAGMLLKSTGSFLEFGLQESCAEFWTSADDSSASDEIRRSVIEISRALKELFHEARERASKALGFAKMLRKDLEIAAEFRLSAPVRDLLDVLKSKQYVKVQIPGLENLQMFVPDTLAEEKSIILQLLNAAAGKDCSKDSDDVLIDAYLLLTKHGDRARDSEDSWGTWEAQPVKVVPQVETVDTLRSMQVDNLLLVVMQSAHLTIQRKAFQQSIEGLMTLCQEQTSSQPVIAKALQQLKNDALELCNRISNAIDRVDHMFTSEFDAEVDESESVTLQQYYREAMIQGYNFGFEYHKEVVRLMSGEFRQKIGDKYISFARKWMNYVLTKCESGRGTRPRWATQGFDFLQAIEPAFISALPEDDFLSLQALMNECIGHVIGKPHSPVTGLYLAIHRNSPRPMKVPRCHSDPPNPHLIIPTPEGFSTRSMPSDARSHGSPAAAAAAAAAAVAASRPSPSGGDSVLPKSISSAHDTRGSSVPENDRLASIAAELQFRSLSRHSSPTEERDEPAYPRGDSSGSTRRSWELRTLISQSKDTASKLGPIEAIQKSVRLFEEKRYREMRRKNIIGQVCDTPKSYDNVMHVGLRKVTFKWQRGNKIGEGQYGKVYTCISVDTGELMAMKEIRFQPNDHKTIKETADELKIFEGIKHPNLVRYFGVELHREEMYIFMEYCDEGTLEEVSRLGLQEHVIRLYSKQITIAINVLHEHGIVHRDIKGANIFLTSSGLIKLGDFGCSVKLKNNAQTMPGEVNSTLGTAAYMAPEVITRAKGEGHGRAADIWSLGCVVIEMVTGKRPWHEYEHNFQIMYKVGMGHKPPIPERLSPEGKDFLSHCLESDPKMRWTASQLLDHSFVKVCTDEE

PIK3CG = PIK3CG (Homo sapiens, UniProt P48736)
VRK2 = VRK2 (Homo sapiens, UniProt Q86Y07)
EGFR = EGFR (Homo sapiens, UniProt P00533)
MST4 = target: T3, MST4 (Homo sapiens, UniProt Q9P289)
T3 construct: gene STK26
T3 sequence (Q9P289 whole entry): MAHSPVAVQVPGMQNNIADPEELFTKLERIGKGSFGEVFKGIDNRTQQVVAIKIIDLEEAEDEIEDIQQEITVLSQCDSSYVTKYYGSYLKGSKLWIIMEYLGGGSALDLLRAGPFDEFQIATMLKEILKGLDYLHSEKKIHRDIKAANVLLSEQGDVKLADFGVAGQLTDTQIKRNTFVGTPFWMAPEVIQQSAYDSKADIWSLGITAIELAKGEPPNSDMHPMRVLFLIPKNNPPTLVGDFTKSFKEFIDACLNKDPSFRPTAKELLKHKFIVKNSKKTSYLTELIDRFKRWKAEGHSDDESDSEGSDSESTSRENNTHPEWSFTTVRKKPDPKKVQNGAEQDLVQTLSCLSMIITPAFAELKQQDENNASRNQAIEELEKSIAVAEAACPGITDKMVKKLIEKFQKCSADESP

STK36 = STK36 (Homo sapiens, UniProt Q9NRP7)
MKNK2 = MKNK2 (Homo sapiens, UniProt Q9HBH9)
Sequence of MKNK2 (Q9HBH9 whole entry): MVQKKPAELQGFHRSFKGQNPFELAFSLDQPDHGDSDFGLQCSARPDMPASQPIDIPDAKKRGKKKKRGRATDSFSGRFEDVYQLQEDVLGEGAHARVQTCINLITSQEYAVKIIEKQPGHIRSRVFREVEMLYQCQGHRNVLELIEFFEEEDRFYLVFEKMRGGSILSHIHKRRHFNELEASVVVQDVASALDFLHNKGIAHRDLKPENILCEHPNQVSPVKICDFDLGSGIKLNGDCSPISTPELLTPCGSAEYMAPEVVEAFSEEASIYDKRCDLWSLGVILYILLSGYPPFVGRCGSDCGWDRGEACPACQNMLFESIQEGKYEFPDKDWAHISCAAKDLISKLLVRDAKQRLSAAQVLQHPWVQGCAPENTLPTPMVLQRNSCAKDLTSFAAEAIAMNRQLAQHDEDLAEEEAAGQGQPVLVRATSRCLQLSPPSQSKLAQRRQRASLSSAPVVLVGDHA

ERBB4 = ERBB4 (Homo sapiens, UniProt Q15303)
Sequence of ERBB4 (Q15303 whole entry): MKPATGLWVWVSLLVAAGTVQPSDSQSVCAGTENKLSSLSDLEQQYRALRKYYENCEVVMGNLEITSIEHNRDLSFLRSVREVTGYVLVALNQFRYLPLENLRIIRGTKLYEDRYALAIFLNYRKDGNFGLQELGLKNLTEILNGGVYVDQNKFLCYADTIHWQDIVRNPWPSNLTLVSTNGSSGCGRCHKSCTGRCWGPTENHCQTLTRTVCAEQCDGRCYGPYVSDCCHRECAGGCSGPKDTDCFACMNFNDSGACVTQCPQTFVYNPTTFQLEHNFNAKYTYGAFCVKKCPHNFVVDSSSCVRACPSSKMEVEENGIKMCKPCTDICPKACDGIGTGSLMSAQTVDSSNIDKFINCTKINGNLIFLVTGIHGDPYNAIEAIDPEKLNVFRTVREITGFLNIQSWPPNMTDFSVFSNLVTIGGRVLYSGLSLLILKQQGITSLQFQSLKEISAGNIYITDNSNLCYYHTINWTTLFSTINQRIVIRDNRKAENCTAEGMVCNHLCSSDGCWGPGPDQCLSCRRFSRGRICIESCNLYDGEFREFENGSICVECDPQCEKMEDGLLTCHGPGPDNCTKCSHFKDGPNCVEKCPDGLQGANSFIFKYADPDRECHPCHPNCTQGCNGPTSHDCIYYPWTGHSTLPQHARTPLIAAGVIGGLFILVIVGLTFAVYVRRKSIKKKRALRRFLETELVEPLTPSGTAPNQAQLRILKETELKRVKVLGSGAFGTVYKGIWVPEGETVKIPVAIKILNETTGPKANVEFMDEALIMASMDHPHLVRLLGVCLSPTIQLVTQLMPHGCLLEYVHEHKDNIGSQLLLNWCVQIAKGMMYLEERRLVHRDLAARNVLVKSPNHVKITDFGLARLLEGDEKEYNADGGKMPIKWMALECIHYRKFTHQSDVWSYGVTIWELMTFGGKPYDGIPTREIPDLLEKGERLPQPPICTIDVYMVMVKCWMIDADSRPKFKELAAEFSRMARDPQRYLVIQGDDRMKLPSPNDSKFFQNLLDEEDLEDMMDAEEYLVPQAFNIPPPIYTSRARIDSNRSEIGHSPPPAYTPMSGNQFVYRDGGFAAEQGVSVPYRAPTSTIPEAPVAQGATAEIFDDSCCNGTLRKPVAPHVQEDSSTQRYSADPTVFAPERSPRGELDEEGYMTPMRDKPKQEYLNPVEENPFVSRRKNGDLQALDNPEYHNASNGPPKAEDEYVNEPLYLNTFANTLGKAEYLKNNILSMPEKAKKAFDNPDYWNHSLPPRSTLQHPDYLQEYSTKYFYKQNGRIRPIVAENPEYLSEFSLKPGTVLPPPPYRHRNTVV

ANKK1 = ANKK1 (Homo sapiens, UniProt Q8NFD2)
ADCK4 = target: T4, ADCK4 (Homo sapiens, UniProt Q96D53)
T4 construct: gene COQ8B

DCLK2 = DCLK2 (Homo sapiens, UniProt Q8N568)
CSNK1G2 = CSNK1G2 (Homo sapiens, UniProt P78368)

`Oc1ccc(C2=Cc3ccc(O)cc3OC2)cc1` [compound 1, idronoxil] gave a remaining binding at 10 µM (MAP3K2) of 83%, a remaining binding at 10 µM (INSRR) of 94% and a remaining binding at 10 µM [1] of 83%. It also gave a remaining binding at 10 µM (CDK16) of 93%, a remaining binding at 10 µM (GSK3A) of 74% and a remaining binding at 10 µM [2] of 52%. For the same molecule, the remaining binding at 10 µM (PAK6) was 100%, the remaining binding at 10 µM (NLK) was 67% and the remaining binding at 10 µM (MAP3K4) was 76%. For the same molecule, the remaining binding at 10 µM (PIK3CG) was 79%, the remaining binding at 10 µM (VRK2) was 67% and the remaining binding at 10 µM (EGFR) was 83%. For the same molecule, the remaining binding at 10 µM (MST4) was 90%, the remaining binding at 10 µM (STK36) was 78% and the remaining binding at 10 µM (MKNK2) was 54%. The remaining binding at 10 µM (ERBB4) was 91%, the remaining binding at 10 µM (ANKK1) was 66% and the remaining binding at 10 µM (ADCK4) was 81%. The remaining binding at 10 µM (DCLK2) was 73% and the remaining binding at 10 µM (CSNK1G2) was 82%.
